Measurements: the NIST ThermoML archive (doi:10.1021/acs.jced.9b00846)

Conditions: Liquid, Vibrating tube method

CC(C)CC(C)C [2,4-dimethylpentane]
Conditions	mass density [kg/m3]
283.15 K, 95 kPa	681.7
283.15 K, 4961 kPa	686.3
283.15 K, 9969 kPa	690.9
283.15 K, 14980 kPa	695.1
283.15 K, 19985 kPa	699.1
283.15 K, 25039 kPa	702.9
283.15 K, 30016 kPa	706.5
283.15 K, 35089 kPa	710
283.15 K, 40016 kPa	713.3
283.15 K, 45012 kPa	716.4
283.15 K, 49972 kPa	719.5
283.15 K, 54980 kPa	722.4
283.15 K, 59931 kPa	725.3
283.15 K, 65047 kPa	728.1
288.15 K, 127 kPa	677.3
288.15 K, 4984 kPa	682.2
288.15 K, 9987 kPa	686.8
288.15 K, 14976 kPa	691.2
288.15 K, 19996 kPa	695.3
288.15 K, 24895 kPa	699.2
288.15 K, 30002 kPa	703
288.15 K, 34983 kPa	706.5
288.15 K, 40000 kPa	709.9
288.15 K, 44974 kPa	713.1
288.15 K, 49950 kPa	716.2
288.15 K, 55010 kPa	719.3
288.15 K, 60065 kPa	722.2
288.15 K, 64958 kPa	725
293.15 K, 83 kPa	672.8
293.15 K, 4982 kPa	677.9
293.15 K, 9969 kPa	682.7
293.15 K, 15059 kPa	687.3
293.15 K, 19914 kPa	691.5
293.15 K, 25056 kPa	695.6
293.15 K, 29936 kPa	699.3
293.15 K, 34976 kPa	703
293.15 K, 39994 kPa	706.4
293.15 K, 44992 kPa	709.8
293.15 K, 50030 kPa	713
293.15 K, 54953 kPa	716
293.15 K, 59933 kPa	719
293.15 K, 65045 kPa	721.9
298.15 K, 92 kPa	668.3
298.15 K, 4941 kPa	673.6
298.15 K, 9982 kPa	678.6
298.15 K, 14991 kPa	683.3
298.15 K, 19963 kPa	687.6
298.15 K, 25048 kPa	691.8
298.15 K, 29972 kPa	695.7
298.15 K, 34945 kPa	699.4
298.15 K, 39958 kPa	702.9
298.15 K, 45007 kPa	706.4
298.15 K, 49963 kPa	709.6
298.15 K, 55008 kPa	712.8
298.15 K, 60003 kPa	715.8
298.15 K, 65017 kPa	718.8
303.15 K, 72 kPa	663.8
303.15 K, 4969 kPa	669.3
303.15 K, 9974 kPa	674.5
303.15 K, 14963 kPa	679.3
303.15 K, 19981 kPa	683.9
303.15 K, 25047 kPa	688.2
303.15 K, 29954 kPa	692.1
303.15 K, 34987 kPa	695.9
303.15 K, 39964 kPa	699.6
303.15 K, 45006 kPa	703.1
303.15 K, 49991 kPa	706.4
303.15 K, 55060 kPa	709.7
303.15 K, 59991 kPa	712.8
303.15 K, 65054 kPa	715.8
308.15 K, 100 kPa	659.4
308.15 K, 4987 kPa	665.1
308.15 K, 9965 kPa	670.4
308.15 K, 15040 kPa	675.5
308.15 K, 19960 kPa	680.1
308.15 K, 24964 kPa	684.4
308.15 K, 30076 kPa	688.7
308.15 K, 34985 kPa	692.5
308.15 K, 39972 kPa	696.2
308.15 K, 44972 kPa	699.8
308.15 K, 49955 kPa	703.2
308.15 K, 54996 kPa	706.5
308.15 K, 60063 kPa	709.7
308.15 K, 65021 kPa	712.7
313.15 K, 108 kPa	654.9
313.15 K, 5004 kPa	660.8
313.15 K, 10013 kPa	666.4
313.15 K, 15049 kPa	671.6
313.15 K, 19963 kPa	676.3
313.15 K, 25062 kPa	680.9
313.15 K, 29960 kPa	685
313.15 K, 34942 kPa	689
313.15 K, 40039 kPa	692.9
313.15 K, 45017 kPa	696.6
313.15 K, 50065 kPa	700.1
313.15 K, 54977 kPa	703.4
313.15 K, 59923 kPa	706.6
313.15 K, 64996 kPa	709.7
318.15 K, 110 kPa	650.2
318.15 K, 5061 kPa	656.5
318.15 K, 9957 kPa	662.2
318.15 K, 15002 kPa	667.6
318.15 K, 19980 kPa	672.5
318.15 K, 25013 kPa	677.1
318.15 K, 30045 kPa	681.5
318.15 K, 34965 kPa	685.6
318.15 K, 39938 kPa	689.5
318.15 K, 44971 kPa	693.2
318.15 K, 49989 kPa	696.8
318.15 K, 55009 kPa	700.2
318.15 K, 59952 kPa	703.5
318.15 K, 65056 kPa	706.7
323.15 K, 121 kPa	645.6
323.15 K, 5001 kPa	652.1
323.15 K, 10007 kPa	658.1
323.15 K, 15037 kPa	663.6
323.15 K, 19969 kPa	668.7
